# Where two headings read alike, the source gives them in different places.
# System: HIV-1 (H9/IIB strain)
# Assay: Multiple Round HIV-1 Infection Assay (Viking Assay) in MT4-GFP cells
# Format: cell-based
# Conditions: inhibition of reproductive ratio R0
# Protocol: Assessing antiviral potency in a Multiple Round HIV-1 Infection Assay (Viking Assay) The antiviral activity of the tenofovir prodrugs of the Examples herein was assessed in an assay that measures the rate of replication of HIV in cell culture, termed the Viking assay (VIral KINetics in Green cells) and performed as follows. HIV-1 replication was monitored using MT4-gag-GFP clone D3 (hereafter designated MT4-GFP), which are MT-4 cells modified to harbor a GFP reporter gene, the expression of which is dependent on the HIV-1 expressed proteins tat and rev. Productive infection of an MT4-GFP cell with HIV-1 results in GFP expression approximately 24 h post-infection. MT4-GFP cells were maintained at 37° C./5% CO2/90% relative humidity in RPMI 1640 supplemented with 10/o fetal bovine serum, 100 U/ml penicillin/streptomycin, and 400 μg/ml G418 to maintain the reporter gene. For infections, MT4-GFP cells were placed in the same medium lacking G418 and infected overnight with HIV-1 (H9/IIB strain) virus at an approximate multiplicity of infection of 0.01 in the same incubation conditions. Cells were then washed and re-suspended in either RPMI 1640 supplemented with 10% or 50% normal human serum (NHS) at 1.6×10^5 cells/mL (10% NHS or 50% NHS, respectively). Compound plates were prepared by dispensing compounds dissolved in DMSO into wells of 384 well poly-D-lysine-coated plates (0.2 μl/well) using an ECHO acoustic dispenser. Each compound was tested in a 10-point serial 3-fold dilution (typical final concentrations: 8.4 μM-0.42 nM). Controls included no inhibitor (DMSO only) and a combination of three antiviral agents (efavirenz, indinavir, an in-house integrase strand transfer inhibitor at final concentrations of 4 μM each). Cells were added (50 μL/well) to compound plates and the infected cells were maintained at 37° C./5% CO2/90% relative humidity.
# Infected cells were quantified at two time points, ˜48 h and ˜72 h post-infection, by counting the number of green cells in each well using an Acumen eX3 scanner. The increase in the number of green cells over ˜24 h period gives the reproductive ratio, R0, which is typically 5-15 and has been shown experimentally to be in logarithmic phase (data not shown). Inhibition of R0 is calculated for each well, and IC50s determined by non-linear 4-parameter curve fitting.
# [1] = MT4-GFP cells infected with HIV-1, 10% normal human serum, read-out: Viking, IC50 (10% NHS)
# [2] = MT4-GFP cells infected with HIV-1, 50% normal human serum, read-out: Viking, IC50 (50% NHS)
compound,measurement,setting,value
"CCCOC(=O)C(C)(C)N[P@@](=O)(CO[C@H](C)Cn1cnc2c(N)ncnc21)N[C@@H](C)c1ccccc1OC [Example 17A, propyl 2-(((R)-((((R)-1-(6-amino-9H-purin-9-yl)propan-2-yl)oxy)methyl)(((S)-1-(2-methoxyphenyl)ethyl)amino)phosphoryl)a-mino)-2-methylpropanoate and propyl 2-(((S)-((((R)-1-(6-amino-9H-purin-9-yl)propan-2-yl)oxy)methyl)(((S)-1-(2-methoxyphenyl)ethyl)amino)phosphoryl)a-mino)-2-methylpropanoate]",IC50,[1],24 nM
same,IC50,[2],310 nM
"propyl 2-(((R)-((((R)-1-(6-amino-9H-purin- 9-yl)propan-2-yl)oxy)methyl)(((R)-1-(4- cyanophenyl)-2,2,2- trifluoroethyl)amino)phosphoryl)amino)-2- methylpropanoate and propyl 2-(((S)-((((R)-1-(6-amino-9H-purin- 9-yl)propan-2-yl)oxy)methyl)(((R)-1-(4- cyanophenyl)-2,2,2- trifluoroethyl)amino)phosphoryl)amino)-2- methylpropanoate [Example 23B]",IC50,[1],47 nM
same,IC50,[2],140 nM
"CCCOC(=O)C(C)(C)NP(=O)(CO[C@H](C)Cn1cnc2c(N)ncnc21)N[C@@H](C)c1ccc(Cl)cc1C (stereo partly drawn) [Example 30B, propyl 2-(((R)-((((R)-1-(6-amino-9H-purin-9-yl)propan-2-yl)oxy)methyl)(((S)-1-(4-chloro-2-methylphenyl)ethyl)amino)phosphoryl)ami-no)-2-methylpropanoate and propyl 2-(((S)-((((R)-1-(6-amino-9H-purin-9-yl)propan-2-yl)oxy)methyl)(((S)-1-(4-chloro-2-methylphenyl)ethyl)amino)phosphoryl)ami-no)-2-methylpropanoate]",IC50,[1],56 nM
same,IC50,[2],750 nM
propyl 2-(((R)-((((R)-1-(6-amino-9H-purin- 9-yl)propan-2-yl)oxy)methyl)((3- fluorobenzyl)amino)phosphoryl)amino)-2- methylpropanoate and propyl 2-(((S)-((((R)-1-(6-amino-9H-purin- 9-yl)propan-2-yl)oxy)methyl)((3- fluorobenzyl)amino)phosphoryl)amino)-2- methylpropanoate [Example 8B],IC50,[1],76 nM
same,IC50,[2],680 nM
"CCCOC(=O)C(C)(C)NP(=O)(CO[C@H](C)Cn1cnc2c(N)ncnc21)N[C@H](C)c1ccc(C(F)(F)F)cc1 (stereo partly drawn) [Example 12A, propyl 2-(((R)-((((R)-1-(6-amino-9H-purin-9-yl)propan-2-yl)oxy)methyl)(((R)-1-(4-(trifluoromethyl)phenyl)ethyl)amino)phos-phoryl)amino)-2-methylpropanoate and propyl 2-(((S)-((((R)-1-(6-amino-9H-purin-9-yl)propan-2-yl)oxy)methyl)(((R)-1-(4-(trifluoromethyl)phenyl)ethyl)amino)phos-phoryl)amino)-2-methylpropanoate]",IC50,[1],96 nM
same,IC50,[2],680 nM
"CCCOC(=O)C(C)(C)N[P@@](=O)(CO[C@H](C)Cn1cnc2c(N)ncnc21)N[C@@H](C)c1ccc(OC)cc1 [Example 14A, propyl 2-(((R)-((((R)-1-(6-amino-9H-purin-9-yl)propan-2-yl)oxy)methyl)(((S)-1-(4-methoxyphenyl)ethyl)amino)phosphoryl)a-mino)-2-methylpropanoate and propyl 2-(((S)-((((R)-1-(6-amino-9H-purin-9-yl)propan-2-yl)oxy)methyl)(((S)-1-(4-methoxyphenyl)ethyl)amino)phosphoryl)a-mino)-2-methylpropanoate]",IC50,[1],25 nM
same,IC50,[2],140 nM
"CCCOC(=O)C(C)(C)NP(=O)(CO[C@H](C)Cn1cnc2c(N)ncnc21)N[C@H](C)c1ccc(C#N)cc1 (stereo partly drawn) [Example 31A, propyl 2-(((R)-((((R)-1-(6-amino-9H-purin-9-yl)propan-2-yl)oxy)methyl)(((R)-1-(4-cyanophenyl)ethyl)amino)phosphoryl)ami-no)-2-methylpropanoate and propyl 2-(((S)-((((R)-1-(6-amino-9H-purin-9-yl)propan-2-yl)oxy)methyl)(((R)-1-(4-cyanophenyl)ethyl)amino)phosphoryl)ami-no)-2-methylpropanoate]",IC50,[1],83 nM
same,IC50,[2],770 nM
"CCCOC(=O)C(C)(C)N[P@@](=O)(CO[C@H](C)Cn1cnc2c(N)ncnc21)N[C@H](C)c1ccc(OC)cc1 [Example 15B, propyl 2-(((R)-((((R)-1-(6-amino-9H-purin-9-yl)propan-2-yl)oxy)methyl)(((R)-1-(4-methoxyphenyl)ethyl)amino)phosphoryl)a-mino)-2-methylpropanoate and propyl 2-(((S)-((((R)-1-(6-amino-9H-purin-9-yl)propan-2-yl)oxy)methyl)(((R)-1-(4-methoxyphenyl)ethyl)amino)phosphoryl)a-mino)-2-methylpropanoate]",IC50,[1],7.4 nM
same,IC50,[2],40 nM
"CC(C)OC(=O)C(C)(C)N[P@@](=O)(CO[C@H](C)Cn1cnc2c(N)ncnc21)N[C@H](C)c1ccc(Cl)cc1 [Example 35A, isopropyl 2-(((R)-((((R)-1-(6-amino-9H-purin-9-yl)propan-2-yl)oxy)methyl)(((R)-1-(4-chlorophenyl)ethyl)amino)phosphoryl)ami-no)-2-methylpropanoate and isopropyl 2-(((S)-((((R)-1-(6-amino-9H-purin-9-yl)propan-2-yl)oxy)methyl)(((R)-1-(4-chlorophenyl)ethyl)amino)phosphoryl)ami-no)-2-methylpropanoate]",IC50,[1],280 nM
same,IC50,[2],1600 nM
propyl 2-(((R)-((((R)-1-(6-amino-9H-purin- 9-yl)propan-2-yl)oxy)methyl)((4- cyanobenzyl)amino)phosphoryl)amino)-2- methylpropanoate and propyl 2-(((S)-((((R)-1-(6-amino-9H-purin- 9-yl)propan-2-yl)oxy)methyl)((4- cyanobenzyl)amino)phosphoryl)amino)-2- methylpropanoate [Example 6A],IC50,[1],70 nM
same,IC50,[2],660 nM
"CCCOC(=O)C(C)(C)N[P@@](=O)(CO[C@H](C)Cn1cnc2c(N)ncnc21)N[C@@H](C)c1cccc(F)c1 [Example 10A, propyl 2-(((R)-((((R)-1-(6-amino-9H-purin-9-yl)propan-2-yl)oxy)methyl)(((S)-1-(3-fluorophenyl)ethyl)amino)phosphoryl)ami-no)-2-methylpropanoate and propyl 2-(((S)-((((R)-1-(6-amino-9H-purin-9-yl)propan-2-yl)oxy)methyl)(((S)-1-(3-fluorophenyl)ethyl)amino)phosphoryl)ami-no)-2-methylpropanoate]",IC50,[1],68 nM
same,IC50,[2],560 nM
"CCCOC(=O)C(C)(C)NP(=O)(CO[C@H](C)Cn1cnc2c(N)ncnc21)N[C@@H](C)c1ccc(C(F)(F)F)cc1 (stereo partly drawn) [Example 11A, propyl 2-(((R)-((((R)-1-(6-amino-9H-purin-9-yl)propan-2-yl)oxy)methyl)(((S)-1-(4-(trifluoromethyl)phenyl)ethyl)amino)phos-phoryl)amino)-2-methylpropanoate and propyl 2-(((S)-((((R)-1-(6-amino-9H-purin-9-yl)propan-2-yl)oxy)methyl)(((S)-1-(4-(trifluoromethyl)phenyl)ethyl)amino)phosphoryl)amino)-2-methylpropanoate]",IC50,[1],4.6 nM
same,IC50,[2],42 nM
"CCCOC(=O)C(C)(C)NP(=O)(CO[C@H](C)Cn1cnc2c(N)ncnc21)N[C@H](c1cccc(OC)c1)C(F)(F)F (stereo partly drawn) [Example 25B, propyl 2-(((R)-((((R)-1-(6-amino-9H-purin-9-yl)propan-2-yl)oxy)methyl)(((R)-2,2,2-trifluoro-1-(3-methoxyphenyl)ethyl)amino)phosphoryl)a-mino)-2-methylpropanoate and propyl 2-(((S)-((((R)-1-(6-amino-9H-purin-9-yl)propan-2-yl)oxy)methyl)(((R)-2,2,2-trifluoro-1-(3-methoxyphenyl)ethyl)amino)phosphoryl)a-mino)-2-methylpropanoate]",IC50,[1],15 nM
same,IC50,[2],97 nM

# — US11123355B2, “Antiviral benzyl-amine phosphodiamide compounds” (Merck Sharp & Dohme Corp., priority 2016, dated 2021)
